Measurements reported in ChEMBL document CHEMBL5252512, “Recent Progress in the Development of HIV-1 Protease Inhibitors for the Treatment of HIV/AIDS” (J Med Chem, 2016).

system: Human immunodeficiency virus 1; test: Antiviral activity against darunavir-resistant HIV1 10P infected in phytohemagglutinin-activated human PBMC cells assessed as inhibition of virus-induced cytopathic effect measured after 7 days by MTT assay; type: functional, organism-based; settings: Human immunodeficiency virus 1, 10P, 168 h

SMILES	EC50 [nM]
COc1ccc(S(=O)(=O)N(CC(C)C)C[C@@H](O)[C@H](Cc2ccccc2)NC(=O)O[C@H]2CO[C@H]3O[C@@H]4OCC[C@@H]4[C@H]32)cc1	5.6

target: Human immunodeficiency virus type 1 protease (Human immunodeficiency virus 1, UniProt Q72874); test: Binding affinity to HIV1 protease assessed as inhibition constant; settings: not given

SMILES	Ki [nM]
COc1ccc(S(=O)(=O)N(CC(C)C)C[C@@H](O)[C@H](Cc2ccccc2)NC(=O)O[C@H]2CO[C@H]3O[C@@H]4OCC[C@@H]4[C@H]32)cc1	0.0059

system: Human immunodeficiency virus 1; test: Ratio of EC50 for antiviral activity against darunavir-resistant HIV1 10P to EC50 for antiviral activity against wild type HIV1 ERS104pre; type: functional; settings: not given

SMILES	Ratio EC50
COc1ccc(S(=O)(=O)N(CC(C)C)C[C@@H](O)[C@H](Cc2ccccc2)NC(=O)O[C@H]2CO[C@H]3O[C@@H]4OCC[C@@H]4[C@H]32)cc1	9

system: Human immunodeficiency virus 1; test: Ratio of EC50 for antiviral activity against HIV1-G to EC50 for antiviral activity against wild type HIV1 ERS104pre; type: functional; settings: not given

SMILES	Ratio EC50
COc1ccc(S(=O)(=O)N(CC(C)C)C[C@@H](O)[C@H](Cc2ccccc2)NC(=O)O[C@H]2CO[C@H]3O[C@@H]4OCC[C@@H]4[C@H]32)cc1	4

system: Human immunodeficiency virus 1; test: Ratio of EC50 for antiviral activity against HIV1-B to EC50 for antiviral activity against wild type HIV1 ERS104pre; type: functional; settings: not given

SMILES	Ratio EC50
COc1ccc(S(=O)(=O)N(CC(C)C)C[C@@H](O)[C@H](Cc2ccccc2)NC(=O)O[C@H]2CO[C@H]3O[C@@H]4OCC[C@@H]4[C@H]32)cc1	6

system: Human immunodeficiency virus 1; test: Ratio of EC50 for antiviral activity against HIV1-TM to EC50 for antiviral activity against wild type HIV1 ERS104pre; type: functional; settings: not given

SMILES	Ratio EC50
COc1ccc(S(=O)(=O)N(CC(C)C)C[C@@H](O)[C@H](Cc2ccccc2)NC(=O)O[C@H]2CO[C@H]3O[C@@H]4OCC[C@@H]4[C@H]32)cc1	4

system: Human immunodeficiency virus 1; test: Antiviral activity against multidrug-resistant HIV1-MM infected in phytohemagglutinin-activated human PBMC cells assessed as inhibition of virus-induced cytopathic effect measured after 7 days by MTT assay; type: functional, organism-based; settings: Human immunodeficiency virus 1, MM, 168 h

SMILES	EC50 [nM]
COc1ccc(S(=O)(=O)N(CC(C)C)C[C@@H](O)[C@H](Cc2ccccc2)NC(=O)O[C@H]2CO[C@H]3O[C@@H]4OCC[C@@H]4[C@H]32)cc1	2.5

system: Human immunodeficiency virus 1; test: Antiviral activity against multidrug-resistant HIV1-TM infected in phytohemagglutinin-activated human PBMC cells assessed as inhibition of virus-induced cytopathic effect measured after 7 days by MTT assay; type: functional, organism-based; settings: Human immunodeficiency virus 1, TM, 168 h

SMILES	EC50 [nM]
COc1ccc(S(=O)(=O)N(CC(C)C)C[C@@H](O)[C@H](Cc2ccccc2)NC(=O)O[C@H]2CO[C@H]3O[C@@H]4OCC[C@@H]4[C@H]32)cc1	2.1

system: Human immunodeficiency virus 1; test: Antiviral activity against darunavir-resistant HIV1 20P infected in phytohemagglutinin-activated human PBMC cells assessed as inhibition of virus-induced cytopathic effect measured after 7 days by MTT assay; type: functional, organism-based; settings: Human immunodeficiency virus 1, 20P, 168 h

SMILES	EC50 [nM]
COc1ccc(S(=O)(=O)N(CC(C)C)C[C@@H](O)[C@H](Cc2ccccc2)NC(=O)O[C@H]2CO[C@H]3O[C@@H]4OCC[C@@H]4[C@H]32)cc1	30

system: Human immunodeficiency virus 1; test: Antiviral activity against multidrug-resistant HIV1-B infected in phytohemagglutinin-activated human PBMC cells assessed as inhibition of virus-induced cytopathic effect measured after 7 days by MTT assay; type: functional, organism-based; settings: Human immunodeficiency virus 1, B, 168 h

SMILES	EC50 [nM]
COc1ccc(S(=O)(=O)N(CC(C)C)C[C@@H](O)[C@H](Cc2ccccc2)NC(=O)O[C@H]2CO[C@H]3O[C@@H]4OCC[C@@H]4[C@H]32)cc1	3.4

system: Human immunodeficiency virus 1; test: Ratio of EC50 for antiviral activity against darunavir-resistant HIV1 20P to EC50 for antiviral activity against wild type HIV1 ERS104pre; type: functional; settings: not given

SMILES	Ratio EC50
COc1ccc(S(=O)(=O)N(CC(C)C)C[C@@H](O)[C@H](Cc2ccccc2)NC(=O)O[C@H]2CO[C@H]3O[C@@H]4OCC[C@@H]4[C@H]32)cc1	50

system: Human immunodeficiency virus 1; test: Ratio of EC50 for antiviral activity against HIV1-JSL to EC50 for antiviral activity against wild type HIV1 ERS104pre; type: functional; settings: not given

SMILES	Ratio EC50
COc1ccc(S(=O)(=O)N(CC(C)C)C[C@@H](O)[C@H](Cc2ccccc2)NC(=O)O[C@H]2CO[C@H]3O[C@@H]4OCC[C@@H]4[C@H]32)cc1	4

system: Human immunodeficiency virus 1; test: Antiviral activity against wild type HIV1 ERS104pre infected in human PBMC cells assessed as inhibition of virus-induced cytopathic effect measured after 7 days by MTT assay; type: functional, organism-based; settings: Human immunodeficiency virus 1, ERS104pre, 168 h

SMILES	EC50 [nM]
COc1ccc(S(=O)(=O)N(CC(C)C)C[C@@H](O)[C@H](Cc2ccccc2)NC(=O)O[C@H]2CO[C@H]3O[C@@H]4OCC[C@@H]4[C@H]32)cc1	0.6

system: Human immunodeficiency virus 1; test: Ratio of EC50 for antiviral activity against HIV1-MM to EC50 for antiviral activity against wild type HIV1 ERS104pre; type: functional; settings: not given

SMILES	Ratio EC50
COc1ccc(S(=O)(=O)N(CC(C)C)C[C@@H](O)[C@H](Cc2ccccc2)NC(=O)O[C@H]2CO[C@H]3O[C@@H]4OCC[C@@H]4[C@H]32)cc1	4

system: Human immunodeficiency virus 1; test: Antiviral activity against multidrug-resistant HIV1-G infected in phytohemagglutinin-activated human PBMC cells assessed as inhibition of virus-induced cytopathic effect measured after 7 days by MTT assay; type: functional, organism-based; settings: Human immunodeficiency virus 1, G, 168 h

SMILES	EC50 [nM]
COc1ccc(S(=O)(=O)N(CC(C)C)C[C@@H](O)[C@H](Cc2ccccc2)NC(=O)O[C@H]2CO[C@H]3O[C@@H]4OCC[C@@H]4[C@H]32)cc1	2.6

system: Human immunodeficiency virus 1; test: Antiviral activity against multidrug-resistant HIV1-C infected in phytohemagglutinin-activated human PBMC cells assessed as inhibition of virus-induced cytopathic effect measured after 7 days by MTT assay; type: functional, organism-based; settings: Human immunodeficiency virus 1, C, 168 h

SMILES	EC50 [nM]
COc1ccc(S(=O)(=O)N(CC(C)C)C[C@@H](O)[C@H](Cc2ccccc2)NC(=O)O[C@H]2CO[C@H]3O[C@@H]4OCC[C@@H]4[C@H]32)cc1	0.8

system: Human immunodeficiency virus 1; test: Antiviral activity against multidrug-resistant HIV1-JSL infected in phytohemagglutinin-activated human PBMC cells assessed as inhibition of virus-induced cytopathic effect measured after 7 days by MTT assay; type: functional, organism-based; settings: Human immunodeficiency virus 1, JSL, 168 h

SMILES	EC50 [nM]
COc1ccc(S(=O)(=O)N(CC(C)C)C[C@@H](O)[C@H](Cc2ccccc2)NC(=O)O[C@H]2CO[C@H]3O[C@@H]4OCC[C@@H]4[C@H]32)cc1	2.5

system: Human immunodeficiency virus 1; test: Ratio of EC50 for antiviral activity against HIV1-C to EC50 for antiviral activity against wild type HIV1 ERS104pre; type: functional; settings: not given

SMILES	Ratio EC50
COc1ccc(S(=O)(=O)N(CC(C)C)C[C@@H](O)[C@H](Cc2ccccc2)NC(=O)O[C@H]2CO[C@H]3O[C@@H]4OCC[C@@H]4[C@H]32)cc1	1
